A short description of data set [1]: Inhibition of Trypanosoma cruzi trans-sialidase.
Data set [2] deals with Leishmania amazonensis. Nature of the data set: Anti-leishmanial activity against Leishmania amazonensis promastigotes. Type of data set: functional. Conditions: read-out: ED50.
For data set [3], the system named is Leishmania amazonensis. Briefly: Anti-leishmanial activity against Leishmania amazonensis intracellular amastigotes. Type of data set: functional. Conditions: read-out: ED50.
A short description of data set [4]: Inhibition of Trypanosoma brucei trypanopain.
The next data set has as its system Leishmania major. Nature of the data set: Anti-leishmanial activity against Leishmania major. Type of data set: functional, organism-based.
Data set [5] deals with Leishmania donovani. Briefly: Anti-leishmanial activity against Leishmania donovani infected in hamsters assessed as reduction in parasite load in liver at 5 to 150 mg/kg/day, po for 6 consecutive days. Type of data set: functional.
Data set [6] can be described thus: Inhibition of Plasmodium falciparum Cytochrome b-c1 complex.
The subject of data set [7] is Leishmania donovani. Briefly: Anti-leishmanial activity against Leishmania donovani infected in hamsters assessed as reduction in parasite load in liver at 20 mg/kg/day, ip for 6 consecutive days. Type of data set: functional.
Data set [8] can be described thus: Inhibition of Plasmodium falciparum succinate-ubiquinone oxidoreductase.
For data set [9], the system named is Leishmania donovani. Nature of the data set: Anti-leishmanial activity against Leishmania donovani infected in hamsters assessed as reduction in parasite load in spleen at 5 to 150 mg/kg/day, po for 6 consecutive days. Type of data set: functional.
In data set [10] the test system is Leishmania donovani. Briefly: Anti-leishmanial activity against Leishmania donovani infected in hamsters assessed as reduction in parasite load in spleen at 20 mg/kg/day, ip for 6 consecutive days. Type of data set: functional.
In the next data set the target is Plasmepsin II (Plasmodium falciparum, UniProt P46925). Nature of the data set: (§1) Inhibition of Plasmodium falciparum plasmepsin 2.
Sequence of Plasmepsin II (P46925 whole entry): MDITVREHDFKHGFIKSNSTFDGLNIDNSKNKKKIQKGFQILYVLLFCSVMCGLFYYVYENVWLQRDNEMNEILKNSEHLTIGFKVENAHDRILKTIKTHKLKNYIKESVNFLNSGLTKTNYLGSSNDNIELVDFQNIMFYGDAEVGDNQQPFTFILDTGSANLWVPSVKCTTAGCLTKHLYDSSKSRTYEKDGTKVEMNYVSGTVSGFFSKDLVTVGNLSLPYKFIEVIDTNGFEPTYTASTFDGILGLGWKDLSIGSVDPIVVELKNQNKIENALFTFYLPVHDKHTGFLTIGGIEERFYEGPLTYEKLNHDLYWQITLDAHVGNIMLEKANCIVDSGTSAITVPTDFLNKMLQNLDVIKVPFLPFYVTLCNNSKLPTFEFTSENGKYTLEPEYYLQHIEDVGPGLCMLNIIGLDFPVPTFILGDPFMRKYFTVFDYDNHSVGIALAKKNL
Data set [11] relates to Plasmodium falciparum. Briefly: Anti-parasitic activity against chloroquine-susceptible Plasmodium falciparum 3D7 assessed as reduction in parasite maturation. Type of data set: functional.
Data set [12] can be described thus: Inhibition of new permeation pathway in erythrocytes (unknown origin) at 20 uM by sorbitol-induced hemolysis assay. Type of data set: functional, cell-based. Conditions: Erythrocyte.
Data set [13] relates to Plasmodium falciparum. Nature of the data set: Anti-parasitic activity against Plasmodium falciparum assessed as inhibition of parasite development from ring to schizont stage. Type of data set: functional.
Data set [14] has as its system Plasmodium falciparum. Briefly: Anti-parasitic activity against Plasmodium falciparum. Type of data set: functional.
The test system of data set [15] is Trichophyton rubrum. Briefly: Antimicrobial activity against Trichophyton rubrum clinical isolates. Type of data set: functional.
For data set [16], the system named is Trichophyton rubrum. Briefly: Antimicrobial activity against Trichophyton rubrum. Type of data set: functional.
Data set [17] has as its target Plasmepsin II (Plasmodium falciparum) (UniProt P46925). Described as §1. The conditions noted are these: concentration not given here.
In data set [18] the test system is Plasmodium falciparum. Nature of the data set: Inhibition of Plasmodium falciparum GST. The conditions noted are these: concentration not given here.
Data set [19] has as its system Plasmodium falciparum. Briefly: Anti-parasitic activity against chloroquine-susceptible Plasmodium falciparum 3D7 assessed as reduction in parasite maturation at 50 ug/ml. Type of data set: functional.
The nature of data set [20]: Inhibition of beta-hematin formation. Type of data set: physicochemical.
The subject of data set [21] is Plasmodium falciparum. Briefly: Anti-parasitic activity against chloroquine-susceptible Plasmodium falciparum D6. Type of data set: functional, organism-based.
Data set [22] has as its system Plasmodium falciparum. Nature of the data set: Anti-parasitic activity against chloroquine-resistant Plasmodium falciparum W2. Type of data set: functional, organism-based.
Data set [23] in a line: Cytotoxicity against human HeLa cells. Type of data set: cell-based.
The subject of another data set is Enterovirus. Nature of the data set: Antiviral activity against Rhinovirus infected in human HeLa cells. Type of data set: functional, organism-based.
Data set [24] can be described thus: Inhibition of Plasmodium falciparum falcipain.
Data set [25] is described as follows: Selectivity index, ratio of cytotoxicity for human HeLa cells to IC50 for anti-parasitic activity against chloroquine-resistant Plasmodium falciparum W2. Type of data set: toxicity, cell-based. The conditions noted are these: read-out: Selectivity Index.
Data set [26] concerns Trichophyton rubrum. Briefly: Antimicrobial activity against Trichophyton rubrum with deltaTruMDR2 mutation. Type of data set: functional.
Data set [27] in a line: Inhibition of Saccharomyces cerevisiae beta-1,3-glucan synthase.
Data set [28] can be described thus: Inhibition of Saccharomyces cerevisiae chitin synthase-1.
Data set [29] deals with Trichophyton rubrum. Briefly: Antimicrobial activity against wild type Trichophyton rubrum MYA3108. Type of data set: functional.
A short description of data set [30]: Inhibition of Trichophyton rubrum FAS.

The IC50 is the concentration that inhibits the measured activity by half. Read a low IC50 as higher potency. By inhibition in vivo is commonly meant the change of the read-out against control, counted positive when it falls. What is called MIC is the smallest concentration in the dilution series that meets the test's criterion for growth inhibition. Broadly, the inhibition is the drop in the measured response relative to a control, in per cent. A high value points to strong suppression. As usually defined, the GI50 is the concentration giving 50% growth inhibition. In general, MIC50 refers to the lowest concentration that inhibits either 50% of growth or 50% of the strains tested, depending on the study. What is called MIC90 is the lowest concentration that inhibits either 90% of growth or 90% of the strains tested, depending on the study. By CC50 is commonly meant the concentration giving 50% cytotoxicity. A low value points to greater toxicity to the cells.

Converted amounts (≈) assume the structure as drawn. Where only a bound is given, the exact number is not on record here.

Sequence of Plasmepsin II (Plasmodium falciparum) (P46925 125-453 limits assumed): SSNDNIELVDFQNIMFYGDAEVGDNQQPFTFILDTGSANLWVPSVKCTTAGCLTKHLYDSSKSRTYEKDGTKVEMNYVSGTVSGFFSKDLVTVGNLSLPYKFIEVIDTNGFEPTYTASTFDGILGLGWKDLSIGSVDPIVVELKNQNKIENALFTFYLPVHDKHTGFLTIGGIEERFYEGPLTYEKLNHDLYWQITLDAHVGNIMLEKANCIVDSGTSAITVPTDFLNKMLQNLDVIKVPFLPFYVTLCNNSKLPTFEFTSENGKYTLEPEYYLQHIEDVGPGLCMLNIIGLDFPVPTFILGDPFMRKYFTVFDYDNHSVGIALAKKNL

`Cc1ccc(S(=O)(=O)Nc2ccc(C(=O)/C=C/c3ccc(O)c(O)c3)cc2)cc1` returned an IC50 in data set [1] of 900 nM.

Take `COc1cc(O)c(C(=O)/C=C/c2ccccc2)c(O)c1`: the EC50 in the data set on Leishmania amazonensis [2] turned out to be 0.5 µg/mL (≈ 1.85 µM); with Leishmania amazonensis [3], 24 µg/mL (≈ 88.8 µM).

For `O=C(/C=C/c1cc2ccccc2nc1Cl)c1ccc(Cl)c(Cl)c1Cl`, in data set [4], it took 240 nM to reach half-maximal inhibition (IC50). In the data set with Leishmania major, `COc1ccc(/C=C/C(=O)c2ccccc2O)c(OC)c1` gave an IC50 of 4540 nM. On to `C=CC(C)(C)c1cc(/C=C/C(=O)c2ccc(O)cc2)c(OC)cc1O` [LICOAGROCHACONE A], for which the “inhibition (INH)” value in the data set on Leishmania donovani [5] and in the data set on Leishmania donovani [9] was over 65% in each case. Besides, the IC50 is 10800 nM in data set [6] and at least 100000 nM in data set [8]. Further, the inhibition in vivo at 20 mg/kg/day with Leishmania donovani [7] and with Leishmania donovani [10] was over 96% in each case.

Compound `COc1ccc(C(=O)/C=C/c2ccc(C(F)(F)F)cc2)c(OC)c1` registered an IC50 against Plasmepsin II of 6000 nM. On to `O=C(/C=C/c1cc2ccccc2nc1Cl)c1cc(Br)cc(Cl)c1O`, for which, in the data set with Plasmodium falciparum [11], the MIC is 10 µg/mL (≈ 23.6 µM). On to `COc1cc2c(cc1/C=C/C(=O)c1ccccc1)[C@H]1CC[C@]3(C)[C@@H](Oc4cc(OC)c(OC)c(OC)c4)CC[C@H]3[C@@H]1CC2`, for which the inhibition in data set [12] was over 70%. In addition, the MIC in the data set on Plasmodium falciparum [13] was found to be 2.07 µM (≈ 1.21 µg/mL). This compound also came in with a 50% growth inhibitory concentration (GI50) in the data set on Plasmodium falciparum [14] of under 5000 nM. In the data set with Trichophyton rubrum [15], `COc1cc(O)c(C(=O)/C=C/c2ccccc2Cl)c(OC)c1` returned an MIC50 of 12.5 µg/mL (≈ 39.2 µM) and an MIC90 of 25 µg/mL (≈ 78.4 µM). Also, it took 12.5 µg/mL (≈ 39.2 µM) to inhibit growth against Trichophyton rubrum [16] (MIC). As for `CCOc1ccc2nc(Cl)c(/C=C/C(=O)c3cc(Br)cc(Cl)c3O)cc2c1`, the minimum inhibitory concentration (MIC) with Plasmodium falciparum [11] worked out at 10 µg/mL (≈ 21.4 µM). `COc1cc(/C=C/C(=O)c2ccc(NC(=O)Nc3cccc(C(=O)/C=C/c4cc(OC)c(OC)c(OC)c4)c3)cc2)cc(OC)c1OC` yielded an inhibition in data set [17] of 87%. `COc1ccc(/C=C/C(=O)c2ccc(N3CCCC3)cc2)cc1` displayed an inhibition with Plasmodium falciparum [18] of 84%.

Turning to `Cc1cccc(C(=O)/C=C(\I)c2cc3ccccc3nc2Cl)c1O`, the minimum inhibitory concentration (MIC) in the data set with Plasmodium falciparum [19] turned out to be 50 µg/mL (≈ 111 µM).

Compound `O=C(/C=C/c1cccnc1)c1ccc(NS(=O)(=O)c2cc(Cl)ccc2Cl)cc1` showed a half-maximal inhibitory concentration (IC50) in data set [20] of 500 nM. With `Cc1ccc(S(=O)(=O)Nc2cccc(C(=O)/C=C/c3ccc(O)c(O)c3)c2)cc1`, the 50% inhibitory concentration (IC50) in data set [1] amounted to 2500 nM.

With `O=C(/C=C/c1cnc2ccccc2c1)c1cc(Cl)ccc1Cl`, the IC50 in the data set on Plasmodium falciparum [21] and in the data set on Plasmodium falciparum [22] was 200 nM throughout. In turn, `CCOc1cc(O)c(C(=O)/C=C/c2ccc(OC)cc2)c(OC)c1` displayed a CC50 in data set [23] of 30 µg/mL (≈ 91.4 µM). The compound also returned a half-maximal inhibitory concentration (IC50) with Enterovirus of 0.03 µg/mL (≈ 0.0914 µM). Regarding `COc1ccc(C(=O)/C=C/c2ccc(F)cc2F)c(OC)c1`, the IC50 against Plasmepsin II was 6000 nM.

`COc1ccc(/C=C/C(=O)c2ccc(-n3nnc4ccccc43)cc2)cc1` gave an inhibition with Plasmodium falciparum [18] of 84%. As to `O=C(/C=C\c1ccnc2ccccc12)c1cc(Cl)ccc1Cl`, the IC50 with Plasmodium falciparum [21] and in the data set with Plasmodium falciparum [22] was 200 nM each time. For `O=C(/C=C/c1ccc(O)cc1)c1ccccc1` [4-HYDROXYCHALCONE], the IC50 with Leishmania major stood at 4000 nM.

The compound `COc1cc2cc(/C=C/C(=O)c3ccc(Cl)cc3Cl)cnc2cc1OC` had an IC50 in data set [24] of 19000 nM. With `COc1ccc(/C=C/C(=O)c2ccc(NS(=O)(=O)c3cc(Cl)ccc3Cl)cc2)c(OC)c1OC`, the IC50 in [20] turned out to be 480 nM.

`COc1ccc(/C=C/C(=O)c2ccccc2)cc1S(=O)(=O)N1CCOCC1`: the selectivity ratio in [25] stood at 9.

`O=C(/C=C/c1ccc(Cl)cc1)c1ccc(N2CCCCC2)cc1` gave an inhibition with Plasmodium falciparum [18] of 84%. `O=C(/C=C/c1ccccc1)c1ccccc1` [CHALCONE]: the MIC against Trichophyton rubrum [26] was 1.9 µg/mL (≈ 9.12 µM); in the data set with Trichophyton rubrum [29] it was 7.5 µg/mL (≈ 36 µM). For the same compound, the IC50 in data set [27] amounted to 0.14 µg/mL (≈ 0.672 µM); in data set [28], 0.02 µg/mL (≈ 0.096 µM); in data set [30], 68.23 µg/mL (≈ 328 µM).

The values above are taken from ChEMBL document CHEMBL3611995, “Chalcone scaffolds as anti-infective agents: structural and molecular target perspectives” (Eur J Med Chem, 2015).
